Data as given in ChEMBL document CHEMBL1909046, “DrugMatrix in vitro pharmacology data”.

What was measured:
[1] = molecular target: Mitogen-activated protein kinase 3 (Homo sapiens, UniProt P27361); experiment: DRUGMATRIX: Protein Serine/Threonine Kinase, ERK1 enzyme inhibition (substrate: Myelin Basic Protein); set-up: species or system Escherichia coli; conditions: Not Active = under 50% inhibition at 10 µM
[2] = molecular target: T1, Type-2 angiotensin II receptor (Homo sapiens, UniProt P50052); assay type: cell-based; conditions: cho-k1; note: in other assays of this panel Not Active means under 50% inhibition at 10 µM
T1 sequence (P50052 whole entry): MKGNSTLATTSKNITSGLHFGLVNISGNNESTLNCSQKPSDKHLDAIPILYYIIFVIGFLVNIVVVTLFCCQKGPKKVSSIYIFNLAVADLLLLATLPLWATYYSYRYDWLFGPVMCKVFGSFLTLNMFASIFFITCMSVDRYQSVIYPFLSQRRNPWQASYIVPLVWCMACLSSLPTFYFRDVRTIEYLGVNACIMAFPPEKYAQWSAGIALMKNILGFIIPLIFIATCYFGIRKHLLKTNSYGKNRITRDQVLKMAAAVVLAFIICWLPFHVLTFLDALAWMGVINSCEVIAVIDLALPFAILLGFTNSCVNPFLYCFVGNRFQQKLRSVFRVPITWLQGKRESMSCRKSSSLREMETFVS

[3] = molecular target: Cytochrome P450 3A4 (Homo sapiens, UniProt P08684); conditions: bti-tn-5b1-4; note: in other assays of this panel Not Active means under 50% inhibition at 10 µM
[4] = molecular target: Acetylcholinesterase (Homo sapiens, UniProt P22303); experiment: DRUGMATRIX: Acetylcholinesterase enzyme inhibition (substrate: acetylthiocholine); assay type: cell-based, HEK293; conditions: hek293; Not Active = under 50% inhibition at 10 µM
[5] = DRUGMATRIX: Platelet-Derived Growth Factor (PDGF) radioligand binding (ligand: [125I] PDGF); assay type: cell-based; conditions: nih3t3; Not Active = under 50% inhibition at 10 µM
[6] = molecular target: T2, Substance-K receptor (Homo sapiens, UniProt P21452); assay type: cell membranes, CHO, Membrane; conditions: cho; note: in other assays of this panel Not Active means under 50% inhibition at 10 µM
T2 sequence (P21452 whole entry): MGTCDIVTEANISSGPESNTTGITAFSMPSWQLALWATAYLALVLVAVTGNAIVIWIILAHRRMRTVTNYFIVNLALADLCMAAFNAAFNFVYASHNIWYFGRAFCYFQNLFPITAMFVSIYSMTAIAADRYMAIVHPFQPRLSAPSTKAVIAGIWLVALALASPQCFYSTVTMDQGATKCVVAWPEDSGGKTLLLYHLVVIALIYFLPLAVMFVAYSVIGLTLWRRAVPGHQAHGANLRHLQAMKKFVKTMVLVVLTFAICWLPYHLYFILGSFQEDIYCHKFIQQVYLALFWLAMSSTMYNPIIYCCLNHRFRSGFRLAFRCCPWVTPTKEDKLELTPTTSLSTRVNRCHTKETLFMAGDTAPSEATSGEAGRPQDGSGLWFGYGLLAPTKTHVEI

[7] = molecular target: T3, C-C chemokine receptor type 4 (Homo sapiens, UniProt P51679); assay type: cell membranes, Membrane; conditions: chem-1; note: in other assays of this panel Not Active means under 50% inhibition at 10 µM
T3 sequence (P51679 whole entry): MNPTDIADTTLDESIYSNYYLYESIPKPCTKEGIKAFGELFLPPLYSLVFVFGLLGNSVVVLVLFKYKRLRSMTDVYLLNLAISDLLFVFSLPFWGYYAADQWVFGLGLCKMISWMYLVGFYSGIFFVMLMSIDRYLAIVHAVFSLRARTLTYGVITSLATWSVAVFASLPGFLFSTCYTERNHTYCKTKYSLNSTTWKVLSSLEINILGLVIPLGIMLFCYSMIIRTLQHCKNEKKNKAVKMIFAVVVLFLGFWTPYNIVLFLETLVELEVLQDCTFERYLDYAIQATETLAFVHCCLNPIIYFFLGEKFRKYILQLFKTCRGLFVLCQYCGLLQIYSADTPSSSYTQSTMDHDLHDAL

[8] = DRUGMATRIX: Calcium Channel Type L, Benzothiazepine radioligand binding (ligand: [3H] Diltiazem); assay type: cell membranes, Rattus norvegicus, Wistar, Brain, Membrane; conditions: Not Active = under 50% inhibition at 10 µM
[9] = molecular target: Tyrosine-protein kinase Fyn (Homo sapiens, UniProt P06241); experiment: biochemical; assay type: cell-based, Insect cells; conditions: insect cells
[10] = molecular target: Aldo-keto reductase family 1 member B1 (Rattus norvegicus, UniProt P07943); assay type: tissue-based, Lens of camera-type eye
[11] = molecular target: Mitogen-activated protein kinase 1 (Homo sapiens, UniProt P28482); experiment: DRUGMATRIX: Protein Serine/Threonine Kinase, ERK2 enzyme inhibition (substrate: Myelin Basic Protein); set-up: species or system Escherichia coli; conditions: Not Active = under 50% inhibition at 10 µM
[12] = molecular target: T4, Neuropeptide Y receptor type 1 (Homo sapiens, UniProt P25929); assay type: cell membranes, Membrane; conditions: sk-n-mc; note: in other assays of this panel Not Active means under 50% inhibition at 10 µM
T4 sequence (P25929 whole entry): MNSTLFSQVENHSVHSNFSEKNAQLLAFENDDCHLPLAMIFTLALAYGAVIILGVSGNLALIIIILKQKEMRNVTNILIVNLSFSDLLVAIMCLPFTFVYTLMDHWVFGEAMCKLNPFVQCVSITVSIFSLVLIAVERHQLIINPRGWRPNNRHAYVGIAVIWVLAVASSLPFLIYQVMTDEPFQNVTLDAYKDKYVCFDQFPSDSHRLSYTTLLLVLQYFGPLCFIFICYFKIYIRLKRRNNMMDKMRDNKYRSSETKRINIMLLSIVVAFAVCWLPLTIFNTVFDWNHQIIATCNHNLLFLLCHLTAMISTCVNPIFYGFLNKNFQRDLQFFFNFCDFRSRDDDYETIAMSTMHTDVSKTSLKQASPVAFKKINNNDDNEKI

[13] = DRUGMATRIX: Glutamate, NMDA, Agonism radioligand binding (ligand: [3H] CGP-39653); assay type: cell membranes, Rattus norvegicus, Wistar, Cerebral cortex, Membrane; conditions: Not Active = under 50% inhibition at 10 µM
[14] = DRUGMATRIX: Glutamate, NMDA, Phencyclidine radioligand binding (ligand: [3H] TCP); assay type: cell membranes, Rattus norvegicus, Wistar, Cerebral cortex, Membrane; conditions: Not Active = under 50% inhibition at 10 µM
[15] = molecular target: Voltage-gated inwardly rectifying potassium channel KCNH2 (Homo sapiens, UniProt Q12809); conditions: hek293; note: in other assays of this panel Not Active means under 50% inhibition at 10 µM
Chain of Voltage-gated inwardly rectifying potassium channel KCNH2 (Q12809 whole entry): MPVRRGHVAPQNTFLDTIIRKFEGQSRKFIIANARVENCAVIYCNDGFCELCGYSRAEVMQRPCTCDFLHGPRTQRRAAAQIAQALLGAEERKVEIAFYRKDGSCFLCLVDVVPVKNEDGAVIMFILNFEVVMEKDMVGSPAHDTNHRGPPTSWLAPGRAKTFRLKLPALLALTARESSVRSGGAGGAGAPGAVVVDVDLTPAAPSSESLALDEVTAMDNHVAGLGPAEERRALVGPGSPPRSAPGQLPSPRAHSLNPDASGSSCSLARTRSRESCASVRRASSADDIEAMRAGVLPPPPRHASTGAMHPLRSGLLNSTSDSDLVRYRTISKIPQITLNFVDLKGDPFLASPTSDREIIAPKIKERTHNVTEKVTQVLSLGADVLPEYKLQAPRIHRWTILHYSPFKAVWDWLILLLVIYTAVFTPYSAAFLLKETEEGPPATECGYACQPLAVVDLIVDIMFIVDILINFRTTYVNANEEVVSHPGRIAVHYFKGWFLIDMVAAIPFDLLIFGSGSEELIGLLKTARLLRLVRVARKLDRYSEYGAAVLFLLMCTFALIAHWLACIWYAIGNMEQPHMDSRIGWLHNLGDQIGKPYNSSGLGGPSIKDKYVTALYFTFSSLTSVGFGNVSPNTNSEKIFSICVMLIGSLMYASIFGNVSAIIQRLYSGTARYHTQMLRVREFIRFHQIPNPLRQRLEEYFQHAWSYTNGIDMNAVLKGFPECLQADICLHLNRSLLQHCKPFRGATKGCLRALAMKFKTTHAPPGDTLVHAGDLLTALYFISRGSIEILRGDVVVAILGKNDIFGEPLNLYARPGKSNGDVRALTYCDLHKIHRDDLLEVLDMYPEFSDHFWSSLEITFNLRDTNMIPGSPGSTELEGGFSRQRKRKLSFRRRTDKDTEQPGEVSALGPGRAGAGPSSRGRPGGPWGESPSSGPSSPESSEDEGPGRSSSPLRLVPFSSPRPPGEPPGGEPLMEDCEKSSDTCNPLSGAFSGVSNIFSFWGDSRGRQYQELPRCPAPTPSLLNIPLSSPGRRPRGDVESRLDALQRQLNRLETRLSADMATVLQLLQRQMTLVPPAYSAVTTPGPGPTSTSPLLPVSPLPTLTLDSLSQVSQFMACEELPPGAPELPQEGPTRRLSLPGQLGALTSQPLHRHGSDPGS

Chain of Mitogen-activated protein kinase 1 (P28482 whole entry): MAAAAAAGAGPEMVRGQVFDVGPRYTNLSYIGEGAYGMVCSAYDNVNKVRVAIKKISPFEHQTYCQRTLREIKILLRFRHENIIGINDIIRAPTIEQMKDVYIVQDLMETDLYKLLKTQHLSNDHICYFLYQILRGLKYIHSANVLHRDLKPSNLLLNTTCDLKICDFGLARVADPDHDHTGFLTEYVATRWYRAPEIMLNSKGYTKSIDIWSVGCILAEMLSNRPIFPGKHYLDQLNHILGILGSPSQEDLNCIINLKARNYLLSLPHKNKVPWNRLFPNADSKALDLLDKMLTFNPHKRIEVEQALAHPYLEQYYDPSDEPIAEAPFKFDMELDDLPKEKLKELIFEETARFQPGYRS
Chain of Tyrosine-protein kinase Fyn (P06241 whole entry): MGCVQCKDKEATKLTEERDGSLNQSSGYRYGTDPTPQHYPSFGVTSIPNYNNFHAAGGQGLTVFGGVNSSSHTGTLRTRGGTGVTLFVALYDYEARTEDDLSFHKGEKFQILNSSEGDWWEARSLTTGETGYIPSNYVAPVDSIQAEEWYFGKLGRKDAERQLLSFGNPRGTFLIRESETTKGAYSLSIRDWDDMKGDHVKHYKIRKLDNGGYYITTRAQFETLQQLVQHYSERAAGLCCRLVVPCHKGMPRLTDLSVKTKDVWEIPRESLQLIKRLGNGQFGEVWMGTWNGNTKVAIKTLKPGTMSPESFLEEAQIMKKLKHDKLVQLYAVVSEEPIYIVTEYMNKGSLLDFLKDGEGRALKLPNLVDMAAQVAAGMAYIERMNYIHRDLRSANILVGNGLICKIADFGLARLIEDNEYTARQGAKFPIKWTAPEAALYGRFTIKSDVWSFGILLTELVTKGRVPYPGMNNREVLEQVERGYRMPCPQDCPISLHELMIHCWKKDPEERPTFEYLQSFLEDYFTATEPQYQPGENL
Chain of Mitogen-activated protein kinase 3 (P27361 whole entry): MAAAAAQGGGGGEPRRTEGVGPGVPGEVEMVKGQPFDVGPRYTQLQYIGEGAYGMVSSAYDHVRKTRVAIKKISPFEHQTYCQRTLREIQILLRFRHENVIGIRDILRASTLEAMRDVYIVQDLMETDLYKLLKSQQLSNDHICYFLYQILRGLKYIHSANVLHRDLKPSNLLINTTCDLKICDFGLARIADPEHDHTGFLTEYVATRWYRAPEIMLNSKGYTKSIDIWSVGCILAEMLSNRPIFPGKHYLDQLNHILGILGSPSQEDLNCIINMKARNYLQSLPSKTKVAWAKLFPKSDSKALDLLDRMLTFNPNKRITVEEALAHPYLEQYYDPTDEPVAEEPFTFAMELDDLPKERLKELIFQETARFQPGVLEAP
Chain of Acetylcholinesterase (P22303 whole entry): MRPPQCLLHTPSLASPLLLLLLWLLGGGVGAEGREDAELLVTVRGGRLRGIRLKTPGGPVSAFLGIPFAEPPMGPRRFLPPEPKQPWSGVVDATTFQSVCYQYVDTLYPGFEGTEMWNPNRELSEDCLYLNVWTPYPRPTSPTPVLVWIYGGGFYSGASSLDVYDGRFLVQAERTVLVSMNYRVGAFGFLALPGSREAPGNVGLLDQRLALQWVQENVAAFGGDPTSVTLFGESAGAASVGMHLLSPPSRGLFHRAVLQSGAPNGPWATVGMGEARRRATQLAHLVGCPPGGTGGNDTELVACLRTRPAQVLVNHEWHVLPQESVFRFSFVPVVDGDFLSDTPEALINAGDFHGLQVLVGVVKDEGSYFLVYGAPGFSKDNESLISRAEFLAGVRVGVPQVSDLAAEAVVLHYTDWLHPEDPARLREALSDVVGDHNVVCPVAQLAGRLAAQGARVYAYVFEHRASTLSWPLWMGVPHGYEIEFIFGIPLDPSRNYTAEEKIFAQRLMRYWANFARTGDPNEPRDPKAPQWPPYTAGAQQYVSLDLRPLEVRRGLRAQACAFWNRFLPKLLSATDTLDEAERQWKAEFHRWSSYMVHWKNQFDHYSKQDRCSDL
Chain of Cytochrome P450 3A4 (P08684 whole entry): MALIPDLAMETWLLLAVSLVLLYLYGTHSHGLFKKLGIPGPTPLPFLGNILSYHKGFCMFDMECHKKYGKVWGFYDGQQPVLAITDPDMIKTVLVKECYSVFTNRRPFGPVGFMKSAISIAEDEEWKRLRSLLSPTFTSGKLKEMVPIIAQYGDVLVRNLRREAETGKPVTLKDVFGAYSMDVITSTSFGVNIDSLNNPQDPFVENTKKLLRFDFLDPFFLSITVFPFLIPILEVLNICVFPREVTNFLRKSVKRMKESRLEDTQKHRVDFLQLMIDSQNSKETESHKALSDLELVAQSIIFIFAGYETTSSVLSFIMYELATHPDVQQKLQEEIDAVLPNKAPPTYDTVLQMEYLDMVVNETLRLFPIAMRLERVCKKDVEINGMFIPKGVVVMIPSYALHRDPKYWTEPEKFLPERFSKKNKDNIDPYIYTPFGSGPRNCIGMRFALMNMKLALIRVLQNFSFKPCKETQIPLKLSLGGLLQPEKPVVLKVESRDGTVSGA

CC(C)(S)[C@@H](N)C(=O)O [PENICILLAMINE]
Not Active: IC50 [1] | IC50 [2] | IC50 [3] | Ki [3] | IC50 [4] | IC50 [5] | Ki [5] | IC50 [6] | IC50 [7] | IC50 [8] | Ki [8] | IC50 [9] | IC50 [10] | IC50 [11] | IC50 [12] | IC50 [13] | Ki [13] | IC50 [14] | Ki [14] | IC50 [15] | Ki [15]

CC(=O)CCCCn1c(=O)c2c(ncn2C)n(C)c1=O [PENTOXIFYLLINE]
Not Active: IC50 [1] | IC50 [2] | IC50 [3] | Ki [3] | IC50 [4] | IC50 [5] | Ki [5] | IC50 [6] | IC50 [7] | IC50 [8] | Ki [8] | IC50 [9] | IC50 [10] | IC50 [11] | IC50 [12] | IC50 [13] | Ki [13] | IC50 [14] | Ki [14] | IC50 [15] | Ki [15]

O=C1NC(=O)C(c2ccccc2)(c2ccccc2)N1 [PHENYTOIN]
Not Active: IC50 [1] | IC50 [2] | IC50 [3] | Ki [3] | IC50 [4] | IC50 [5] | Ki [5] | IC50 [6] | IC50 [7] | IC50 [8] | Ki [8] | IC50 [9] | IC50 [10] | IC50 [11] | IC50 [12] | IC50 [13] | Ki [13] | IC50 [14] | Ki [14] | IC50 [15] | Ki [15]

C=C(C)[C@@H]1[C@H]2OC(=O)[C@@H]1[C@]1(O)C[C@H]3O[C@]34C(=O)O[C@H]2[C@]14C [PICROTOXININ]
Not Active: IC50 [1] | IC50 [2] | IC50 [3] | Ki [3] | IC50 [4] | IC50 [5] | Ki [5] | IC50 [6] | IC50 [7] | IC50 [8] | Ki [8] | IC50 [9] | IC50 [10] | IC50 [11] | IC50 [12] | IC50 [13] | Ki [13] | IC50 [14] | Ki [14] | IC50 [15] | Ki [15]
